Laboratory results taken from PMC7961380, “A Systematic Study of the In Vitro Pharmacokinetics and Estimated Human In Vivo Clearance of Indole and Indazole-3-Carboxamide Synthetic Cannabinoid Receptor Agonists Detected on the Illicit Drug Market” (Molecules, 2021).

What was measured:
[1] = system: pooled human cryopreserved hepatocytes (pHHeps); experiment: Metabolic stability, pooled human cryopreserved hepatocyte incubations; details: for T1/2: pHHeps 0.25 million cells mL^−1, 0.5 µM, 37 °C, n ≥ 3 ± SD
[2] = Metabolic stability, pooled human liver microsome incubations; details: for T1/2: pHLM 0.5 mg mL^−1, 0.5 µM, NADPH, 37 °C; for T1/2 / Microsomal Intrinsic Clearance, CLint micr: n ≥ 3 ± SD
Protocol: Total incubation volume was 500 µL. Procedure: Test compound working solutions (50 µM in potassium phosphate buffer (pH 7.4)) were prepared (<1% DMSO). pHLM were thawed and diluted in potassium phosphate buffer (pH 7.4). […] Reactions were quenched in 200 µL ACN spiked with donepezil (IS, 50 ng mL^−1). […] Samples were analysed by UPLC-MS/MS in a 96 deep-well 2 mL plate. Each SCRA was incubated at least in triplicate but additional incubations were carried out across a number of analytical batches, giving greater replication and a greater understanding of system variability. Microsomal scaling factors used for human liver microsome incubations in the literature vary. Intrinsic clearance and predicted in vivo clearance rates calculated using alternative scaling factors found in the literature is provided in Section S6 of the supplementary information, to aid comparison of data between publications.
Equations used for in vitro intrinsic clearance calculation and human in vivo clearance […]
The equations used for in vitro intrinsic clearance calculation and human in vivo clearance estimation […]
Microsomal clearance (HLM incubations) in mL min-1 mg microsomal protein-1 [3]
Intrinsic clearance (whole-liver dimensions) (HLM incubations) in mL min-1 kg-1 [3] CL = k x V x [Liver](g) x SF Eqn. 7 […]
mg g microsomal protein-1 [7]
Intrinsic clearance (whole-liver dimensions) (HHep incubations) in mL min-1 kg-1 [4] CL = k x V x hepatocytes/g liver x [Liver](g) Eqn. 8 […]
Where: hepatocytes/g liver = 107x10^6 cells/g liver
Hepatic clearance in mL min-1 kg-1 [3]
[…] Eqn. 9
Where: Q = hepatic blood flow, 21 mL min-1 kg-1 [9]; fu = fraction unbound (plasma); CLint = […]
Estimated human hepatic extraction ratio [5]
Intrinsic clearance data – pooled human liver microsome incubations […]
table S4-28. Intrinsic clearance and predicted in vivo data calculated using alternative microsomal scaling factors found in the literature – 32 [10] and 45 [11] mg microsomal protein per gram liver – are provided in tables S29 and S30, respectively.

[3] = pHLM, alternative microsomal scaling factor 45 mg microsomal protein per gram liver
[4] = pHHeps, alternative hepatocyte cell density 99x10^6 hepatocytes per gram liver
[5] = pHLM, scaling factor 32 mg microsomal protein per gram liver
[6] = pHLM, scaling factor 45 mg microsomal protein per gram liver
[7] = pHHeps, 99x10^6 hepatocytes per gram liver

Row | Compound | % parent compound remaining, Average ([1]; pHHeps, 3 min) [%] | % parent compound remaining, Average ([1]; pHHeps, 6 min) [%] | % parent compound remaining, Average ([1]; pHHeps, 9 min) [%] | % parent compound remaining, Average ([1]; pHHeps, 15 min) [%] | % parent compound remaining, Average ([1]; pHHeps, 30 min) [%] | % parent compound remaining, Average ([1]; pHHeps, 45 min) [%] | % parent compound remaining, Average ([1]; pHHeps, 60 min) [%] | T1/2 [2] [min] | Intrinsic clearance, CLint [2, 3] [mL/min/kg] | Microsomal Intrinsic Clearance, CLint micr ([2]; pHLM) | T1/2 [1] [min] | Intrinsic clearance, CLint [1, 4] [mL/min/kg] | % parent compound remaining, Average ([2]; pHLM, 3 min, […]) [%] | % parent compound remaining, Average ([2]; pHLM, 6 min, […]) [%] | % parent compound remaining, Average ([2]; pHLM, 9 min, […]) [%] | % parent compound remaining, Average ([2]; pHLM, 15 min, […]) [%] | % parent compound remaining, Average ([2]; pHLM, 30 min, […]) [%] | % parent compound remaining, Average ([1]; pHHeps, 3 min, […]) [%] | % parent compound remaining, Average ([1]; pHHeps, 6 min, […]) [%] | % parent compound remaining, Average ([1]; pHHeps, 9 min, […]) [%] | other results
1 | CCOc1ccc2ccc(=O)oc2c1 [7-ethoxycoumarin, reference compound] | 91.4 | 89.4 | 80.0 | 73.7 | 54.9 | 40.7 | 29.0 |  |  |  |  |  |  |  |  |  |  |  |  |  | Intrinsic clearance, CLint ([1]; pHHeps, scaled to whole liver, 107x10^6 cells/g liver): 55 to 305 mL/min/kg
2 | O=c1ccc2ccc(O)cc2o1 [7-hydroxycoumarin, reference compound] | 98.6 | 97.5 | 95.7 | 90.8 | 75.8 | 67.2 | 55.8 |  |  |  |  |  |  |  |  |  |  |  |  |  | intrinsic clearance rate ([1]; pHHeps positive control, range over batches): 46 to 238 min⁻¹ kg⁻¹
3 | CC(C)[C@@H](NC(=O)c1nn(Cc2ccc(F)cc2)c2ccccc12)C(N)=O [(R)-AB-FUBINACA (8), N-(1-amino-3-methyl-1-oxobutan-2-yl)-1-(4-fluorobenzyl)-1H-indazole-3-carboxamide] | 96.7 | 86.5 | 84.9 | 84.4 | 75.2 | 82.9 | 78.8 | 145 ± 45 | 11.8 | 0.010 ± 0.003 mL min^−1 mg Microsomal Protein^−1 | 69 ± 11 | 105 ± 14.6 |  |  |  |  |  |  |  |  | % parent compound remaining, Average ([2]; pHLM, 3 min): 89.5%; % parent compound remaining, Average ([2]; pHLM, 6 min): 90.5%; % parent compound remaining, Average ([2]; pHLM, 9 min): 88.4%; % parent compound remaining, Average ([2]; pHLM, 15 min): 82.9%; % parent compound remaining, Average ([2]; pHLM, 30 min): 83.9%
4 | CC(C)[C@@H](NC(=O)c1nn(CC2CCCCC2)c2ccccc12)C(N)=O [(R)-AB-[…] (11)] [N-[1-amino-3-methyl-1-oxobutan-2-yl]-1-(cyclohexylmethyl)-1H-indazole-3-carboxamide] |  |  |  |  |  |  |  | 43 ± 5.0 | 37.8 ± 4.19 | 0.033 ± 0.004 mL min^−1 mg Microsomal Protein^−1 | 38 ± 8.7 | 197 ± 50.3 | 84.0 | 84.4 | 82.1 | 73.6 | 59.0 | 91.3 | 89.8 | 88.6 | Intrinsic clearance, CLint ([2]; pHLM, alternative microsomal scaling factor 32 mg microsomal protein per gram liver): 26.9 mL/min/kg; % parent compound remaining, Average ([1]; pHHeps, 15 min, […]): 86.6%; % parent compound remaining, Average ([1]; pHHeps, 30 min, […]): 73.0%; % parent compound remaining, Average ([1]; pHHeps, 45 min, […]): 75.2%; % parent compound remaining, Average ([1]; pHHeps, 60 min, […]): 76.2%
5 | CC(C)[C@H](NC(=O)c1nn(CC2CCCCC2)c2ccccc12)C(N)=O [(S)-AB-[…] (11)] [N-[1-amino-3-methyl-1-oxobutan-2-yl]-1-(cyclohexylmethyl)-1H-indazole-3-carboxamide] |  |  |  |  |  |  |  |  |  | 0.051 ± 0.005 mL min^−1 mg Microsomal Protein^−1 |  |  | 76.2 | 76.7 | 70.6 | 61.7 | 45.8 | 96.9 | 85.7 | 81.8 | Predicted In Vivo Hepatic Clearance, CLH ([2]; from pHLM CLint, well-stirred model with plasma fu, Q 21 mL min^−1 kg^−1): 1.77 ± 0.17 mL/min/kg; Hepatic extraction ratio, EH ([2]; from pHLM incubations): 0.08 ± 0.008; Hepatic extraction ratio, EH [2, 5]: 0.05 ± 0.005; Predicted in vivo hepatic clearance, CLH [2, 5]: 1.12 ± 0.11 mL/min/kg; Hepatic extraction ratio, EH [2, 6]: 0.08 ± 0.007; Predicted in vivo hepatic clearance, CLH [2, 6]: 1.54 ± 0.15 mL/min/kg; Predicted In Vivo Hepatic Clearance, CLH ([1]; from pHHeps CLint, well-stirred model with plasma fu, Q 21 mL min^−1 kg^−1): 4.52 ± 1.12 mL/min/kg; Hepatic extraction ratio, EH ([1]; from pHHeps incubations): 0.22 ± 0.053; Hepatic extraction ratio, EH [1, 7]: 0.20 ± 0.051; Predicted in vivo hepatic clearance, CLH [1, 7]: 4.26 ± 1.08 mL/min/kg; % parent compound remaining, Average ([1]; pHHeps, 15 min, […]): 88.6%; % parent compound remaining, Average ([1]; pHHeps, 30 min, […]): 65.5%; % parent compound remaining, Average ([1]; pHHeps, 45 min, […]): 63.2%; % parent compound remaining, Average ([1]; pHHeps, 60 min, […]): 53.4%
